Data taken from patent US7763654B2, “Crystal polymorph of hydroxynorephedrin derivative hydrochloride” (Kissei Pharmaceutical Co., Ltd., priority 2005, dated 2010).

Assays:
[1] = Stability Test 1 (60° C.), storage for a week; HPLC, powder X-ray diffraction, appearance; type: physicochemical; conditions: for residual percentage (chemical purity %): HPLC; for crystal form: powder X-ray diffraction
Procedure: (§1) The powder X-ray diffraction data of each crystal polymorph were measured by X-ray diffractometer RINT 2100 ultima+manufactured by Rigaku Denki Corporation (measuring conditions; CuK α rays, 40 kV in X-ray tube voltage, 40 mA in X-ray tube current). The 2θ value of diffraction pattern by the powder X-ray diffractometry may deviate in some cases by a factor of about 0.5° depending on the sample conditions and measuring conditions. In addition, due to the properties of data, a total diffraction pattern of the powder X-ray diffractometry is important for the identification of crystals. The TG/DTA measurements of each crystal polymorph were conducted by thermogravimetry analyzer (TG/DTA) ThermoPlus 2 series TG8120 manufactured by Rigaku Denki Corporation (measuring conditions; temperature rising rate 10° C./minutes, samplepan (Al), reference (Al2O3), under a nitrogen atmosphere). Melting points of each crystal were searched from differential thermal analysis (DTA) endothermic peak (extrapolation). The solid state C^13-NMR spectrums of each crystal polymorph were measured by AVANCE/DRX500 manufactured by Bruker (measuring conditions; accumulated counts 512 times, contact time 3 msec, repeated time 5 sec, probe 4 mm MAS, observed frequency 125.77 Mhz, spinning rate 10000 Hz).
After ethyl (−)-2-[4-[2-[[(1S,2R)-2-hydroxy-2-(4-hydroxyphenyl)-1-methylethyl]amino]ethyl]-2,5-dimethylphenoxy]-acetate hydrochloride obtained in Example 1 was stored at 60° C. for a week, chemical stability was determined by measuring the residual percentage of ethyl (−)-2-[4-[2-[[(1S,2R)-2-hydroxy-2-(4-hydroxylphenyl)-1-methylethyl]amino]ethyl]-2,5-dimethylphenoxy]acetate hydrochloride by HPLC and polymorphic stability was examined by the powder X-ray diffraction measurement.

[2] = Stability Test 2 (140° C.), heating, powder X-ray diffraction; type: physicochemical; conditions: after heating to 140° C.
Procedure: as §1, with “Hz). […]” for “Hz).”

[3] = after 1 week storage at 60° C., hydrochloride
[4] = after 1 week storage at 60° C., listed as crystal form C, hydrochloride

residual percentage (chemical purity %) [1, 3]: constant | residual percentage (chemical purity %) [1, 4]: 99.6% | appearance [1, 3]: no change in appearance | appearance [1, 4]: white | crystal form [1, 3]: polymorphic transformation did not occur | crystal form [1, 4]: crystal form C | appearance ([1]; at start): white | residual percentage (chemical purity %) ([1]; at start): 99.6% | crystal form ([1]; at start): crystal form C | change of the crystalline form [2]: still crystalline form C
Compound: CCOC(=O)COc1cc(C)c(CCN[C@@H](C)[C@H](O)c2ccc(O)cc2)cc1C.Cl [crystalline form C, ethyl (−)-2-[4-[2-[[(1S,2R)-2-hydroxy-2-(4-hydroxyphenyl)-1-methylethyl]amino]ethyl]-2,5-dimethylphenoxy]-acetate hydrochloride]
